Results published in patent US20120004304A1, “BILE SALT ADJUVANT FOR ANIMALS FOR IMPROVING FAT UTILIZATION EFFICIENCY IN THE BODIES OF ANIMALS, AND ANIMAL FEED COMPRISING SAME” (KIMIN INC., priority 2009, published 2012).

Key:
[1] = Fat emulsifying capacity test; assay type: physicochemical; details: 75% water, 24.3% fat, 0.7% emulsifier (3% of fat), stirred
Procedure: In order to confirm emulsifying capacity of sodiumstearoyl-2-lactylate(hereinafter, referred to as “SSL”) of the present invention, 75% water, 24.3% fat and 0.7% SSL (3% of the amount of fat used) were added and stirred. POE (20)-glyceride, mono-glyceride and lecithin were used as comparative examples.

[2] = Measurement of serum biochemical index; set-up: species or system ICR rats; details: rat, in vivo
Procedure: Feed for animal tests purchased from Shin Chon Feed Co., Ltd, were prepared and various additives were added thereto to obtain a molded animal feed with a predetermined size.
4-week old male ICR rats with a weight of […] were obtained from the laboratory animal center of Seoul National University, were divided into five groups (n=12) and maintained at a temperature of 23±2° C. and a variety of specific animal feeds were administered thereto. At this time, animals of each group were treated with the following chemicals: (percentage (%) means % by weight) • Control Group: animal feed+soybean oil 5% • Experimental Group: animal feed+soybean oil 5%+SSL 0.1% (HLB 20) • Comparative Example 1: animal feed+soybean oil 5%+lecithin 0.1% (HLB 4) • Comparative Example 2: animal feed+soybean oil 5%+glycerin monocaprate 0.1% (HLB 7) • Comparative Example 3: animal feed+soybean oil 5%+POE (20) sorbitan monolaurate 0.1% (HLB 16)
At 15 hours after the final weight of the test animals was measured (25 days), blood was collected from supraorbital […] blood vessel plexus of the rats using a capillary tube, serum was separated, and the following biochemical indexes were measured using a kit. […]

[3] = Fat digestion percentage and ME with SSL in animal feed; assay type: in vivo; details: 0.05% by weight of SSL in animal feed
Excerpt: The use of SSL enables improvement in digestion and absorption efficiency of fats, growth promotion, improvement of qualities, and an increase in production yield. From the results of preferred experimental examples, it can be seen that, when 0.05% by weight of SSL is used, fat digestion percentage is increased to about 5 to 10% and ME is increased to about 100 kcal/kg.

| Compound | emulsifying capacity (appearance after stirring) [1] | serum GPT and GOT versus control [2] | ME increase [3] |
| --- | --- | --- | --- |
| CCCCCCCCCCCCCCCCCC(=O)OC(C)C(=O)OC(C)C(=O)[O-].[Na+] (centres unmarked) [SSL, sodium stearoyl-2-lactylate] | homogeneous dispersion | considerable improvement in serum GPT and GOT | about 100 kcal/kg |
| mono-glyceride | no emulsification | – | – |
| POE (20)-glyceride | layer separation | – | – |
